Laboratory results: patent US20050096282A1, “Adeno-associated virus-delivered ribozyme compositions and methods for the treatment of retinal diseases” (priority 1997, published 2005)

Assays:
[1] = test system: HREC; test: VEGF protein in HREC after adenosine receptor agonists and antagonists; type: cell-based, human; details: agonists 10 μm, with NECA: CPX 20 nM, SCH 60 nM, XAC 10 μm, * p < 0.005 vs untreated
[2] = test system: HREC; test: BrdU incorporation (DNA synthesis) in HRECs; type: cell-based, human; details: for Proliferation BrdU Incorporation: HREC, agonists 10 μm, with NECA: CPX 20 nM, SCH 60 nM, XAC 10 μm, * p < 0.005 vs untreated
Protocol: (§1) The subtype of adenosine receptor (A2B) that mediates the proliferative effect of adenosine on HREC was determined by the following studies. […] In contrast, neither the A2A adenosine receptor agonist CGS21680 (2-p-(2-carboxyethyl) phenethylamino-5′-N-ethylcarboxamidoadenosine) at concentrations ranging from 10 nM to 10 μM, nor the A1 adenosine receptor agonist CPA (N^6-cyclopentyladenosine) at concentrations ranging from 10 nM to 10 μM increased BrdU incorporation by HRECs. […] In contrast, neither the selective A1 adenosine receptor antagonist CPX (8-cyclopentyl-1,3-dipropylxanthine) at 20 nM, nor the selective A2A adenosine receptor antagonist SCH58261 (5-amino-7-(2-phenylethyl)-2-(2-furyl)-pyrazolo(4,3-E)-1,2,4-trizolo(1,5-c) pyrimidine) at 60 nM attenuated the stimulatory effect of NECA on BrdU incorporation by HRECs. These findings indicate that the proliferative effects of NECA are mediated by the A2B adenosine receptor in HREC in culture (Table 3).

[3] = test system: HREC; test: ERK/MAPK activation in HREC, Western blot; type: cell-based, human; details: for ERK activation by agonist: agonist alone; for effect on NECA-stimulated ERK activation: HREC pretreated with antagonist or inhibitor, then NECA
Protocol: HREC were serum-starved for 24 hr and pre-treated for 20 min with 1 U/mL adenosine deaminase prior to adding NECA. Activated ERK/MAPK was visualized on Western blots by enhanced chemiluminescence using EC10 monoclonal antibody;
HRECs were serum-starved for 24 hr and pre-treated with adenosine deaminase (ADA, 1 U/mL) for 20 min, incubated with the antagonists in the presence of ADA for 10 min. NECA (1 nM-10 μM, 10 min) was used to activate ERK.
In order to determine the intracellular signaling pathways activated by NECA that regulate ERK activity, we pretreated cells for 30 min with the ERK/MPAK kinase (MEK) inhibitor PD98059 or the PKA inhibitor H-89 and stimulated with NECA for 5 min.
Cells were pre-treated with both antagonists for 10 min and stimulated with increasing concentrations of NECA.

[4] = test system: HREC; test: cAMP content of intact HRECs; type: cell-based, human
Excerpt: The cAMP content of intact HRECs following treatment with adenosine receptor agonists and antagonists was next examined. […] The effect of selective A1 and A2A adenosine receptor antagonists on NECA-induced accumulation of cAMP was also examined.

[5] = test system: HREC; test: VEGF mRNA in HREC after adenosine receptor agonists and antagonists; type: cell-based, human; details: agonists 10 μm, with NECA: CPX 20 nM, SCH 60 nM, XAC 10 μm, * p < 0.005 vs untreated
[6] = test system: HREC; test: HREC proliferation, cell count; type: cell-based, human; details: for Proliferation Cell Count: HREC, agonists 10 μm, with NECA: CPX 20 nM, SCH 60 nM, XAC, Enprofylline, JW V108 10 μm, * p < 0.005 vs untreated; for increase in HREC number: agonist alone, 48 hr
Protocol: as §1
The data for cell counts were consistent with those for BrdU incorporation. […] These compounds, like XAC, blocked the proliferative effects of NECA as measured by cell counts, supporting that the proliferative effects of NECA on HREC are mediated by the adenosine A2B receptor (Table 3).

[7] = test system: oxygen-induced retinal neovascularization; test: Oxygen-induced retinal neovascularization in the neonatal mouse; type: in vivo; details: daily IP 30 mg/Kg body weight; vs uninjected control
Excerpt: The potential efficacy of administering adenosine receptor antagonists to reduce retinal neovascularization brought on by ischemic insult was examined. In the neonatal mouse model of oxygen-induced retinopathy, 7-day-old mice are placed with their nursing dams in a 75% oxygen atmosphere for 5 days. Upon return to normal air, these mice develop retinal neovascularization, with peak development occurring 5 days after their return to normoxia. During this time, the animals receive by daily intaperitoneal injection a pharmacologically relevant concentration of adenosine receptor antagonist or vehicle (0.15% vol./vol. DMSO in normal saline) alone. Exemplary antagonists tested include XAC and 3-n-propylxanthine (Enprofylline), and JW V108, both at a concentration of 30 mg/Kg of body weight. […]
Individuals masked to the identity of treatment counted all cell nuclei above the inner limiting membrane for all 20 sections from each eye. […] The efficacy of treatment with a particular antagonist was then calculated as the fraction of total nuclei in antagonist or vehicle treatment over total nuclei in uninjected control. […] Whole retinas from these eyes were then flat-mounted for qualitative assessment of retinal neovascularization by fluorescence microscopy.

[8] = test system: HREC; test: HREC chemotaxis; type: cell-based, human
Excerpt: The role of the A2B receptor was further characterized by examining the effects of the A2B antagonists JW V108 and Enprofylline on HREC chemotaxis, capillary tube formation and signal transduction pathways following stimulation with the adenosine analogue NECA.

[9] = test system: HREC; test: CREB phosphorylation at Ser133 in HREC, western blot; type: cell-based, human; details: HREC pretreated
Excerpt: Phosphorylation of cAMP response element binding protein (CREB) at Ser^133 was examined following NECA stimulation in order to determine whether activation of cAMP pathways by NECA occurred independently of ERK activation. Cells were pretreated with PD98059 or H-89 and assayed for active CREB by western blot.

Structure (SMILES)	VEGF Protein [1] [fold change vs. untreated]	Proliferation BrdU Incorporation [2] [fold change vs. untreated]	ERK activation by agonist ([3]; HREC)	basal ERK activation ([3]; HREC, CGS 1-10 μM, H-89 30 min pretreatment)	CAMP Content ([4]; HREC, agonists 10 μm, with NECA: CPX 20 nM, SCH 60 nM, XAC 10 μm, * p < 0.005 vs untreated) [fold change vs. untreated]	effect on cAMP content of HREC ([4]; agonist alone, concentrations up to 100 μM)	VEGF MRNA [5] [fold change vs. untreated]	Proliferation Cell Count [6] [fold change vs. untreated]	increase in HREC number [6]	effect on NECA-stimulated ERK activation [3]	inhibition of oxygen-induced retinal neovascularization [7] [%]	inhibition of NECA-induced HREC chemotaxis [8]	attenuation of NECA-stimulated BrdU incorporation by HRECs ([2]; XAC 10 μM, CPX 20 nM, SCH58261 60 nM)	inhibition of NECA-induced increase in cAMP content in HRECs ([4]; NECA 10 μM)	inhibition of increase in cell number induced by NECA ([6]; 10 μM NECA)	CREB activation (phosphorylation) following NECA stimulation [9]
CCNC(=O)[C@H]1O[C@@H](n2cnc3c(N)nc(NCCc4ccc(CCC(=O)O)cc4)nc32)[C@H](O)[C@@H]1O [CGS21680, 2-p-(2-carboxyethyl) phenethylamino-5′-N-ethylcarboxamidoadenosine]	1.3 ± 0.20	1.0 ± 0.08	did not activate ERK	reduced the basal ERK levels	1.1 ± 1.02	no significant effect	0.8 ± 0.37	1.1 ± 0.03	neither CGS21680 nor CPA caused an increase in cell number							
OC[C@H]1O[C@@H](n2cnc3c(NC4CCCC4)ncnc32)[C@H](O)[C@@H]1O [CPA, N^6-cyclopentyladenosine]	1.1 ± 0.27	0.8 ± 0.06	capable of stimulating ERK				1.1 ± 0.22	0.9 ± 0.04	neither CGS21680 nor CPA caused an increase in cell number							
CCCn1c(=O)[nH]c(=O)c2[nH]cnc21 [Enprofylline, 3-n-propylxanthine]										completely abolished ERK activation	70	inhibited				
CCCn1c(=O)c2[nH]c(-c3ccc(OCC(=O)NCCN)cc3)nc2n(CCC)c1=O [XAC, xanthine amine congener]										decreased ERK activation by high concentrations of NECA	54		completely prevented	completely blocked	significantly inhibited	blocked CREB phosphorylation
